Experimental findings from ChEMBL document CHEMBL1201862, “PubChem BioAssay data set” (2004) are described below.

The structures appear in SMILES notation. The source made the active and inactive calls.

For assay [1], the target named is ALK tyrosine kinase receptor (Homo sapiens, UniProt Q9UM73). Type of assay: functional.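 Further: ALK tested as one member of a kinase panel screen.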
Assay [2] deals with Serine/threonine-protein kinase D3 (Homo sapiens, UniProt O94806). It counts as functional.
Serine/threonine-protein kinase D3, sequence (O94806 whole entry): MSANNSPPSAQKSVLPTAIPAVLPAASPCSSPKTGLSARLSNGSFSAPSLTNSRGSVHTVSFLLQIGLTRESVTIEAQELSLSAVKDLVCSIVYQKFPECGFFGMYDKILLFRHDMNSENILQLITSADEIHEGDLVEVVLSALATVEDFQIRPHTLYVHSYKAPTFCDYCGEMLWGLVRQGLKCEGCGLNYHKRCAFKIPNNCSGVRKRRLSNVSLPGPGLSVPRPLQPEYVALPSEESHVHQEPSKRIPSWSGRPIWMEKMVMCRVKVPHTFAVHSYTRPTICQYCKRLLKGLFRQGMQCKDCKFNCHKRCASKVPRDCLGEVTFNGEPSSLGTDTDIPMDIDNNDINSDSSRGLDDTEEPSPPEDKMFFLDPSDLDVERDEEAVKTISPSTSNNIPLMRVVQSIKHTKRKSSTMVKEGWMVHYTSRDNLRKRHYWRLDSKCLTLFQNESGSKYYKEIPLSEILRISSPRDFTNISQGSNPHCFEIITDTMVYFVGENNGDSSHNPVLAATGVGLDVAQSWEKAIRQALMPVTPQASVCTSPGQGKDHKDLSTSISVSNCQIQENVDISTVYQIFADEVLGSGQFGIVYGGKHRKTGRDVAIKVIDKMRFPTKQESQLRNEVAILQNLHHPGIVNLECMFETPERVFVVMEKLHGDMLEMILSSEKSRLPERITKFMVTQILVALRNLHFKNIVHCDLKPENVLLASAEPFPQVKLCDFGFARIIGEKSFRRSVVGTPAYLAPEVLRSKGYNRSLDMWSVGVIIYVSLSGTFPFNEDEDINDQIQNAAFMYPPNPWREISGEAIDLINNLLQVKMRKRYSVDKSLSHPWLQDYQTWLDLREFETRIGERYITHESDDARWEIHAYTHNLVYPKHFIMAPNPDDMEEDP
In assay [3] the target is Tyrosine-protein kinase Lck (Homo sapiens, UniProt P06239). Type of assay: functional.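 Further: lck was assayed as one member of a kinase panel.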
The target in assay [4] is Death-associated protein kinase 3 (Homo sapiens, UniProt O43293). It counts as functional.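 Further: measured as one member of a kinome-wide profiling panel.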
The next assay addresses Activin receptor type-1 (Homo sapiens, UniProt Q04771). As to the kind of experiment: Navigating the Kinome. Panel member name: ACVR1. It counts as functional.
Assay [5] addresses Mitogen-activated protein kinase 8 (Homo sapiens, UniProt P45983). It counts as functional.
Assay [6] has as its target Serine/threonine-protein kinase pim-1 (Homo sapiens, UniProt P11309). It counts as functional.
Assay [7] concerns the target Tyrosine-protein kinase BTK (Homo sapiens, UniProt Q06187). Type of assay: functional.
The target of assay [8] is Serine/threonine-protein kinase PAK 4 (Homo sapiens, UniProt O96013). It counts as functional.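 Further: value obtained within a kinome profiling panel in which PAK4 was one of the panel members.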
Assay [9] has as its target Fibroblast growth factor receptor 1 (Homo sapiens, UniProt P11362). It counts as functional.
Assay [10] has as its target Casein kinase I isoform alpha (Homo sapiens, UniProt P48729). Type of assay: functional.
Assay [11] concerns the target Tyrosine-protein kinase JAK3 (Homo sapiens, UniProt P52333). It counts as functional.
Assay [12] has as its target Serine/threonine-protein kinase TAO1 (Homo sapiens, UniProt Q7L7X3). Type of assay: functional.
The target of assay [13] is T1, Glycogen synthase kinase-3 alpha (Homo sapiens, UniProt P49840). Type of assay: functional.
T1 sequence (P49840 whole entry): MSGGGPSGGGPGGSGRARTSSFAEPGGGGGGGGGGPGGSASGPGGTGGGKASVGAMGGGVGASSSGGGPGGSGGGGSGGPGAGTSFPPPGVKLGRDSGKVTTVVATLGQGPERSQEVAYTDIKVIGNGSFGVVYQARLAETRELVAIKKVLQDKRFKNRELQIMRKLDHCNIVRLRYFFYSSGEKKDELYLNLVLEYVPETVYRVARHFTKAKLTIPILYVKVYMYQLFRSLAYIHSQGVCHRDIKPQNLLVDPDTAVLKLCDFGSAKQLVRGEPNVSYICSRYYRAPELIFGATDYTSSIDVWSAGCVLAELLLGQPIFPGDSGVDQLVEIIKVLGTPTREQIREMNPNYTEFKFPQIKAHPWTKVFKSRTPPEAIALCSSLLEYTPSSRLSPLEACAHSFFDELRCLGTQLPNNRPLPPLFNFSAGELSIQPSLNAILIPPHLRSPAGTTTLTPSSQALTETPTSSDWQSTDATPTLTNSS
Assay [14] deals with Mitogen-activated protein kinase kinase kinase kinase 2 (Homo sapiens, UniProt Q12851). Type of assay: functional.
For assay [15], the target named is Hepatocyte growth factor receptor (Homo sapiens, UniProt P08581). It counts as functional.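 Further: kinase panel profiling across the kinome, with MET as the panel member.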
Assay [16] deals with Serine/threonine-protein kinase Chk1 (Homo sapiens, UniProt O14757). It counts as functional.
In assay [17] the target is G protein-coupled receptor kinase 5 (Homo sapiens, UniProt P34947). As to the kind of experiment: Navigating the Kinome. Panel member name: GPRK5. It counts as functional.
Assay [18] deals with Dual specificity tyrosine-phosphorylation-regulated kinase 1B (Homo sapiens, UniProt Q9Y463). As to the kind of experiment: Navigating the Kinome. Panel member name: DYRK1B. Type of assay: functional.
Assay [19] addresses cAMP-dependent protein kinase catalytic subunit PRKX (Homo sapiens, UniProt P51817). It counts as functional.
In assay [20] the target is Platelet-derived growth factor receptor alpha (Homo sapiens, UniProt P16234). As to the kind of experiment: Navigating the Kinome. Panel member name: PDGFRA. It counts as functional.
Another assay has as its target Aurora kinase B (Homo sapiens, UniProt Q96GD4). Type of assay: functional.
The target of assay [21] is Tyrosine-protein kinase Fyn (Homo sapiens, UniProt P06241). It counts as functional.
The target of assay [22] is Serine/threonine-protein kinase Nek2 (Homo sapiens, UniProt P51955). Type of assay: functional.
Assay [23] addresses Cyclin-dependent kinase 8 (Homo sapiens, UniProt P49336). As to the kind of experiment: Navigating the Kinome. Panel member name: CDK8. Type of assay: functional.
Assay [24] deals with Cyclin-dependent kinase 7 (Homo sapiens, UniProt P50613). It counts as functional.
In assay [25] the target is Vascular endothelial growth factor receptor 1 (Homo sapiens, UniProt P17948). Type of assay: functional.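 Further: measured within a kinome-wide profiling panel, FLT1 as the panel member.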
Assay [26] deals with Dual specificity protein kinase CLK4 (Homo sapiens, UniProt Q9HAZ1). It counts as functional.
In assay [27] the target is Mitogen-activated protein kinase kinase kinase kinase 4 (Homo sapiens, UniProt O95819). It counts as functional.
In assay [28] the target is Dual specificity tyrosine-phosphorylation-regulated kinase 1A (Homo sapiens, UniProt Q13627). Type of assay: functional.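 Further: measured against DYRK1A as one member of a broad kinome profiling panel.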
Assay [29] addresses Calcium/calmodulin-dependent protein kinase type II subunit alpha (Homo sapiens, UniProt Q9UQM7). As to the kind of experiment: Navigating the Kinome. Panel member name: CAMK2A. It counts as functional.
Assay [30] has as its target Leukocyte tyrosine kinase receptor (Homo sapiens, UniProt P29376). As to the kind of experiment: Navigating the Kinome. Panel member name: LTK. Type of assay: functional.
Assay [31] addresses Mitogen-activated protein kinase 14 (Homo sapiens, UniProt Q16539). It counts as functional.
Assay [32] concerns the target T2, High affinity choline transporter 1 (Homo sapiens, UniProt Q9GZV3).
T2 sequence (Q9GZV3 whole entry): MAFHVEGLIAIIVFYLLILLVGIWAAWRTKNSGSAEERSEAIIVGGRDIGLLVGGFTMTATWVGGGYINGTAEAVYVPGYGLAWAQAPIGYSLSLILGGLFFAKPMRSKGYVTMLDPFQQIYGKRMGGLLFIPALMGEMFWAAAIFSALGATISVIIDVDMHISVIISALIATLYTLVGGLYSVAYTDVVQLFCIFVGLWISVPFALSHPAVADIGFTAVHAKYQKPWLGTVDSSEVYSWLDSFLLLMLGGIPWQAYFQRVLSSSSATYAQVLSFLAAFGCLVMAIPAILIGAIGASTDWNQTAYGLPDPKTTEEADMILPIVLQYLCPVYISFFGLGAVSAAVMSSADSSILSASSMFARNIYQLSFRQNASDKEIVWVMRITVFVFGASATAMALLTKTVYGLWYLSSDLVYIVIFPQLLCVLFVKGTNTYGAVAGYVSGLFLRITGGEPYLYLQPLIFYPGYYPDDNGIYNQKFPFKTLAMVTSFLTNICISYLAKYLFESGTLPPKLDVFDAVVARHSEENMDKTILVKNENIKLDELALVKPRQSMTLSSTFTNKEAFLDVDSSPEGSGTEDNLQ
As to the kind of experiment: human choline transporter potentiators, potency – cell-based, 10-point CRC, membrane potential dye, dose response (AID 602376). Type of assay: functional.

The target in assay [33] is T3, RNA-binding protein pos-1 (Caenorhabditis elegans, UniProt G5EF15).
T3 sequence (G5EF15 whole entry): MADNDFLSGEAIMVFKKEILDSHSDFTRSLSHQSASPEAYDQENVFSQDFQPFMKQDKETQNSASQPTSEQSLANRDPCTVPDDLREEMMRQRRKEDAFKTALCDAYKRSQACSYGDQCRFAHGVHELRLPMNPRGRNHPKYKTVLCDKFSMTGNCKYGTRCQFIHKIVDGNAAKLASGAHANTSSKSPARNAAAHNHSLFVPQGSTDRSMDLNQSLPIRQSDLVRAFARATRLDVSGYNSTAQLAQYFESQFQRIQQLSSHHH
As to the kind of experiment: disruptors of C. elegans POS-1 RNA interaction – biochemical, fluorescence polarization, dose response (AID 1964).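 Further: purified POS-1 fused to maltose binding protein made in E. coli; potency of compounds blocking POS-1 binding to fluorescent RNA.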 In general terms: Polarisation of emitted light reports the rotation of a fluorescent probe.

For assay [34], the target named is T4, Zinc finger protein mex-5 (Caenorhabditis elegans, UniProt Q9XUB2).
T4 sequence (Q9XUB2 whole entry): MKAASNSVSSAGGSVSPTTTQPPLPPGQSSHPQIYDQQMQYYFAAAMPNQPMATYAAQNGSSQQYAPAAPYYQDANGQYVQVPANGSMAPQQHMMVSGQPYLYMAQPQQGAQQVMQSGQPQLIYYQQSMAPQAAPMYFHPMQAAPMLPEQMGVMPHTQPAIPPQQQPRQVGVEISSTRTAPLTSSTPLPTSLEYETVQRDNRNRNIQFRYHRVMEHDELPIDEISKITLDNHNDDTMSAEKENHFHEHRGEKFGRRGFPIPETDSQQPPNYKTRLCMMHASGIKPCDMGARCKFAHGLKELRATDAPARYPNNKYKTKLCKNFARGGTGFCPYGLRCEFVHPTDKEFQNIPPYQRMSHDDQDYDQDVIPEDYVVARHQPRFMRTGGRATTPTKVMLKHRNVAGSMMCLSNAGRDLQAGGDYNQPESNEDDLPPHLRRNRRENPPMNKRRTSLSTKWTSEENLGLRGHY
As to the kind of experiment: potency of MEX-5 RNA-binding blockers – biochemical, C. elegans, fluorescence polarization, dose response (AID 1960).

For assay [35], the target named is Beta-lactamase (Pseudomonas aeruginosa, UniProt Q79MP6).
For assay [36], the target named is Beta-lactamase (Salmonella choleraesuis (strain SC-B67), UniProt Q5J463).
A further assay deals with CHO. As to the kind of experiment: CHO cell viability loss, potency – luminescence, cytotoxicity control for TLR9-MyD88 binding inhibitor project, dose response (AID 588339).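 Further: CHO cells stably coexpressing TLR9 and MyD88 fusions from primary screen; compound exposure lasted 48 hours before viability readout.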 It counts as functional, cell-based, hamster. The note with it: Cricetulus griseus.
Another assay addresses Beta Lactamase (Pseudomonas aeruginosa, UniProt Q932Y6). As to the kind of experiment: BLA reporter interference, concentration series – BLA reporter cells, FRET fluorescence, artefact control for TLR9-MyD88 binding inhibitor project, dose response (AID 588341).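 Further: cell based assay in CHO-K1 cells stably expressing beta-lactamase.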 It counts as cell-based.
Assay [37] has as its target T1, Glycogen synthase kinase-3 alpha. As to the kind of experiment: Inhibition of Human GSK-3 alpha Activity Measured in Biochemical System Using Microfluidics - 2063-06_Inhibitor_Dose_DryPowder_Activity_Set2. [Related pubchem assays (depositor defined):AID2709].
Assay [38] concerns the target Glycogen synthase kinase-3 beta (Homo sapiens, UniProt P49841). As to the kind of experiment: Inhibition of Human GSK-3 beta Activity Measured in Biochemical System Using Microfluidics - 2063-05_Inhibitor_Dose_DryPowder_Activity_Set2. [Related pubchem assays (depositor defined):AID2709].
For assay [39], the target named is Cyclin-dependent kinase 5/CDK5 activator 1 (Homo sapiens, UniProt Q00535). As to the kind of experiment: human CDK5 activity blockade – biochemical, microfluidic mobility shift, dry powder, selectivity assay for GSK-3 alpha inhibitor project, dose response (AID 588430).
Cyclin-dependent kinase 5/CDK5 activator 1, sequence (Q00535 whole entry): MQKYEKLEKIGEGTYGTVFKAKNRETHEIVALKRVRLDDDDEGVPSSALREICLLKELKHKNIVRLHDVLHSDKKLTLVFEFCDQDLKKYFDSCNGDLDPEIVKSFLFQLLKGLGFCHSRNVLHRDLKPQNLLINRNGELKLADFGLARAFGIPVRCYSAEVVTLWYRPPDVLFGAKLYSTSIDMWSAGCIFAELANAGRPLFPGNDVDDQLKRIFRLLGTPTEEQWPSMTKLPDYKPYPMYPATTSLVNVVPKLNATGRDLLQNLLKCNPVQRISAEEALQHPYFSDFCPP
Cyclin-dependent kinase 5/CDK5 activator 1, sequence (Q15078 whole entry, further chain): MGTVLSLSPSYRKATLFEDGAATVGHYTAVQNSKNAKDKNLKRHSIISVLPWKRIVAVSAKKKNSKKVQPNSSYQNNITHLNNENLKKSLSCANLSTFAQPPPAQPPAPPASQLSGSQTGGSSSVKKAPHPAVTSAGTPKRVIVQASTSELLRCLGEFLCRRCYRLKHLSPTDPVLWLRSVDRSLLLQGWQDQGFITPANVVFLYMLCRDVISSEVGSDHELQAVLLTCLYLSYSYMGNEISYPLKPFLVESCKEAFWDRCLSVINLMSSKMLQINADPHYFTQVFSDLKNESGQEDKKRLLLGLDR

Fibroblast growth factor receptor 1, sequence (P11362 whole entry, canonical isoform): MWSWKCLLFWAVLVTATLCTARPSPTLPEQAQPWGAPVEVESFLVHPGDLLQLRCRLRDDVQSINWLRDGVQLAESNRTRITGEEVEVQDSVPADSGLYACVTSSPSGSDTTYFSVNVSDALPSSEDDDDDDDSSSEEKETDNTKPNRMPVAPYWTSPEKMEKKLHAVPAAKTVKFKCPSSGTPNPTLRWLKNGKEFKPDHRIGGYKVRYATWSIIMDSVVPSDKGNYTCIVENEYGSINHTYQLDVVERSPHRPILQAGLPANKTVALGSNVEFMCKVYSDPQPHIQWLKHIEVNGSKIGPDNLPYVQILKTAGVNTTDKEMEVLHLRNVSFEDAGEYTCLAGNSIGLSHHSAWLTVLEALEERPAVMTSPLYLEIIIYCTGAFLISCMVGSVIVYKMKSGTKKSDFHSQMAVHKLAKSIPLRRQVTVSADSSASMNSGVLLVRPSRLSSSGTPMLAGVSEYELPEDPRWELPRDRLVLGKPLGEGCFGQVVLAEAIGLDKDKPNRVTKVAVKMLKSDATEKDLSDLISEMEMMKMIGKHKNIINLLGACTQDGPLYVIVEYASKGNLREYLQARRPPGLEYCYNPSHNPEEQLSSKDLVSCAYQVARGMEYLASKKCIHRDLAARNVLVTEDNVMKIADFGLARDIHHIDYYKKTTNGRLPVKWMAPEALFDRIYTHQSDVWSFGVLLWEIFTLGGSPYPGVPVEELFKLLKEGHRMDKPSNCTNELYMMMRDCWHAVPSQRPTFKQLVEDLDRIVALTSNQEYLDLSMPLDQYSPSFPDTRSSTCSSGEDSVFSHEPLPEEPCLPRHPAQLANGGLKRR
Serine/threonine-protein kinase pim-1, sequence (P11309 whole entry): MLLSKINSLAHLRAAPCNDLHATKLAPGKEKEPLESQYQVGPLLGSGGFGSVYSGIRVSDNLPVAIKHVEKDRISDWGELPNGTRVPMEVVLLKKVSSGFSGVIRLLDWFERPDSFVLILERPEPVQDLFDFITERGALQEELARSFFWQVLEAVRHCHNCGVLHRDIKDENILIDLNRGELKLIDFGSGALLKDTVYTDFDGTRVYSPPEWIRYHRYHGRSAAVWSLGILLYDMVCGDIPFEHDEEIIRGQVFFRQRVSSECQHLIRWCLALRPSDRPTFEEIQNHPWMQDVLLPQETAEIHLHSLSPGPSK
Cyclin-dependent kinase 8, sequence (P49336 whole entry): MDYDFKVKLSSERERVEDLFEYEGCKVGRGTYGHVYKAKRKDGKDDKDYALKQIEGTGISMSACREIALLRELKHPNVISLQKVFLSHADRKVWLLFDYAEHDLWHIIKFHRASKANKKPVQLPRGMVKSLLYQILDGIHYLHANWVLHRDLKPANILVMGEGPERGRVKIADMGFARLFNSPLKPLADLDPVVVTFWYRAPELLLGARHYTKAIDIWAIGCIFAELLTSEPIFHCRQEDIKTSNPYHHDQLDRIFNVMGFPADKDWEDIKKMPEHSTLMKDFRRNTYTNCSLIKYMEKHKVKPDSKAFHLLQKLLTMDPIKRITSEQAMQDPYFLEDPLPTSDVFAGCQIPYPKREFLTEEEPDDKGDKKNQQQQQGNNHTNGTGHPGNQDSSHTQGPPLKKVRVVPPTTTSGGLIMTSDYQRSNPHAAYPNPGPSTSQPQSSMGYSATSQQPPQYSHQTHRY
Tyrosine-protein kinase BTK, sequence (Q06187 whole entry): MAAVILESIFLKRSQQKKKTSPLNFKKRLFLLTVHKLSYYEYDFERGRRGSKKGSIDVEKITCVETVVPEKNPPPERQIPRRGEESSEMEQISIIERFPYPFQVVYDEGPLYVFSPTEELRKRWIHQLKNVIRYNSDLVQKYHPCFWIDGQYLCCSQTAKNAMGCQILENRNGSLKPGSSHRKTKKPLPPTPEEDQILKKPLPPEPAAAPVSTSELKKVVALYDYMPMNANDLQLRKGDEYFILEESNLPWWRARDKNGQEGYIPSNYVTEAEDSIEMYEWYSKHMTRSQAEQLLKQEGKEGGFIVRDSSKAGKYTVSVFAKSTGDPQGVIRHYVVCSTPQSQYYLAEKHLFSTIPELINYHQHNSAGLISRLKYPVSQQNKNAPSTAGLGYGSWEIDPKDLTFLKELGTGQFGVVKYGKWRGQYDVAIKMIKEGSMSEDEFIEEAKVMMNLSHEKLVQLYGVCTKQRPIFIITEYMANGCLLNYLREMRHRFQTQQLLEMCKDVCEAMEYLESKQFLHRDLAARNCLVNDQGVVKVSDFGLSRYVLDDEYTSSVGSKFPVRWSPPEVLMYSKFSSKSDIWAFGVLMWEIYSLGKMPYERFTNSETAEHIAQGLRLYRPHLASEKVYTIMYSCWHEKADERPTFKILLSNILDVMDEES
cAMP-dependent protein kinase catalytic subunit PRKX, sequence (P51817 whole entry): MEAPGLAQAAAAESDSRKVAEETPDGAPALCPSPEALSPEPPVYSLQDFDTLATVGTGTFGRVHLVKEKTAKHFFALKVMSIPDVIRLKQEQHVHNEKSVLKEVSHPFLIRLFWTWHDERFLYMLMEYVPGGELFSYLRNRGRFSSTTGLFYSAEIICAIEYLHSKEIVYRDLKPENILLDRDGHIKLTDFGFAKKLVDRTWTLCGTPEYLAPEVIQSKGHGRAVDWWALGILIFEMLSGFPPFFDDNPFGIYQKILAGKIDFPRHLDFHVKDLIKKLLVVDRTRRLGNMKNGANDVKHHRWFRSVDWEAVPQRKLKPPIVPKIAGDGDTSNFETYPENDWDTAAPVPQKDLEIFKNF
Beta Lactamase, sequence (Q932Y6 whole entry): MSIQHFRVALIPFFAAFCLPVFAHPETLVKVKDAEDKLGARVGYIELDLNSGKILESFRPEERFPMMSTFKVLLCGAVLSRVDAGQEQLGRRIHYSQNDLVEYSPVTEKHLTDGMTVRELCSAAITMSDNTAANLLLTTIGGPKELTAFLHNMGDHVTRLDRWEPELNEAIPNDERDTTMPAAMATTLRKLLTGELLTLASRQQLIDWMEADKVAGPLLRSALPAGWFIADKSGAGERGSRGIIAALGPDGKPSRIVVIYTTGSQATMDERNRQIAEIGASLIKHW

`CCN1c2cc(N)ccc2-c2ccc(N)cc2C1(O)c1ccccc1` (stereo not drawn): the Ki in assay [1] was > 6.31 µM (inactive); in assay [2] it was 3.98 µM (active); in assay [3], > 6.31 µM (inactive); in assay [4], > 5.01 µM (inactive); at Activin receptor type-1 it was > 3.98 µM (inactive); in assay [5], > 5.01 µM (inactive). Moreover, the Ki in assay [6] is > 6.31 µM (inactive); in assay [7] it was 3.98 µM (active); in assay [8] it was > 5.01 µM (inactive); in assay [9], > 3.98 µM (inactive); in assay [10], > 3.98 µM (inactive); in assay [11], 3.16 µM (active). The Ki in assay [12] is 3.16 µM (active); in assay [13] it was > 3.98 µM (inactive); in assay [14], 2 µM (active); in assay [15] it was 2.51 µM (active); in [16], 2 µM (active); in assay [17] it was > 3.98 µM (inactive). Moreover, the Ki in [18] was 2.51 µM (active); in assay [19] it was 2 µM (active); in assay [20], 1.26 µM (active); at Aurora kinase B, > 3.98 µM (inactive); in assay [21] it was > 6.31 µM (inactive); in assay [22], 2 µM (active). Moreover, the Ki in [23] was > 3.98 µM (inactive); in assay [24], > 3.98 µM (inactive); in assay [25] it was 3.16 µM (active); in assay [26], 398 nM (active); in assay [27], 3.16 µM (active); in assay [28] it was 794 nM (active). The Ki in [29] is > 3.98 µM (inactive); in assay [30], 2 µM (active); in assay [31], > 3.98 µM (inactive).
As to `CN(Cc1ccc(F)cc1)C(=O)c1sccc1-c1ccccc1`, the concentration for a half-maximal effect (EC50) in assay [32] is 18.2 µM (active).
Regarding `CCN(CC)c1ccc(/C=C/C(=O)c2ccc(Br)cc2)cc1`, the values for the half-maximal effective concentration (EC50) in assay [33] and in assay [34] were 13.8 µM (inconclusive) and 13.5 µM (inconclusive), respectively. Further, the IC50 at Beta-lactamase [35] is 11 µM (inactive); at Beta-lactamase [36] it was 3.09 µM (active); in the assay on CHO it was > 49.7 µM (inactive); at Beta Lactamase, 3.82 µM (active).
Regarding `O=C(CN1C(=O)CCC1=O)Nc1cccc2c1C(=O)NC2=O`, the AC50 was 459 nM (active) in assay [37], 261 nM (active) in assay [38] and 20.2 µM (active) in assay [39].

The term Ki denotes a measure of affinity in units of concentration, obtained from inhibition or displacement. A word on the EC50: it is the concentration giving half of the maximal effect. The IC50 is the midpoint of a concentration-inhibition curve. By AC50 is commonly meant the concentration giving half of the maximal activity seen.
